Activity calls are given as the source filed them. The rule behind the calls is not given here.
Tests used:
Rattus norvegicus [1] = test: Antipsychotic activity in amphetamine-induced hyperlocomotion activity in rat assessed as reversal of amphetamine-induced hyperlocomotion at 1 to 10 mg/kg, po preincubated for 30 mins followed by amphetamine addition and measured after 60 mins by open field test relative to control; type: functional; details: dose 1-10 mg/kg, time 90 min, 1.5 h
[2] = Volume of distribution at steady state in Cynomolgous monkey at 0.2 mg/kg,iv by LC-MS/MS analysis; details: cynomolgus monkey, in vivo, read-out: Vdss
[3] = Plasma protein binding in rat assessed as unbound fraction incubated for 4 hrs by LC/MS/MS analysis; type: ADME, cell-free
[4] = Toxicity in rat assessed as effect on somatomotor parameters at 56.6 mg/kg, po measured after 6 hrs by Irwin test; type: organism-based; details: in vivo
[5] = Ratio of unbound drug concentration in Beagle dog brain to plasma at 3 mg/kg, po by LC-MS/MS analysis; type: ADME, organism-based, Canis lupus familiaris; details: read-out: K(p,uu,brain)
[6] = AUC (0 to infinity) in Sprague-Dawley rat at 3 mg/kg,po by LC-MS/MS analysis; type: ADME, organism-based; design: dose 3 mg/kg, route po; details: in vivo
[7] = Toxicity in rat assessed as effect on autonomical parameters at 56.6 mg/kg, po measured after 6 hrs by Irwin test; type: organism-based; details: in vivo
[8] = Tmax in Beagle dog at 3 mg/kg,po by LC-MS/MS analysis; type: ADME, organism-based, Canis lupus familiaris; details: in vivo
Cytochrome P450 1A2 [9] = target: T1, Cytochrome P450 1A2 (Homo sapiens, UniProt P05177); test: […] of human CYP1A2 mediated drug metabolism incubated for 5 mins followed by NADPH addition measured after 1 hr by LC-UV/MS analysis relative to control; type: ADME; details: recombinant enzyme, 1.083 h, time 65 min
T1 sequence (P05177 whole entry): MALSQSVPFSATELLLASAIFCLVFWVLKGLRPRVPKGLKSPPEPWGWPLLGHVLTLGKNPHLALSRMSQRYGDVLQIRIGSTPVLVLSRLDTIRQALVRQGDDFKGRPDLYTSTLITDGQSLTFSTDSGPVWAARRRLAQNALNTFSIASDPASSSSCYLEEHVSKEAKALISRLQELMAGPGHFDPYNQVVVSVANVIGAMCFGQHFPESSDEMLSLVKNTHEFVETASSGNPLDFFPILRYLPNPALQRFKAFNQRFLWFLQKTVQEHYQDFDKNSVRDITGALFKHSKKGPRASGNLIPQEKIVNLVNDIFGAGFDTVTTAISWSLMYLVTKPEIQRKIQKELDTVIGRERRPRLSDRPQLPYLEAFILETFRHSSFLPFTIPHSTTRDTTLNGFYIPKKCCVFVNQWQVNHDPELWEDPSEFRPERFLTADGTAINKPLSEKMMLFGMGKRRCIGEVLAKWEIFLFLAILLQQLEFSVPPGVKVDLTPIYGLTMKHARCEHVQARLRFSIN

CYP2B6 = target: T2, CYP2B6 (Homo sapiens, UniProt P20813); test: Activation of CYP2B6 in human hepatocyte using bupropion as substrate preincubated for 5 days followed by substrate addition and measured after 1 hr by LC-MS/MS analysis relative to control; type: ADME, cell-based; details: hepatocytes, probe bupropion, time 121 hrs
T2 sequence (P20813 whole entry): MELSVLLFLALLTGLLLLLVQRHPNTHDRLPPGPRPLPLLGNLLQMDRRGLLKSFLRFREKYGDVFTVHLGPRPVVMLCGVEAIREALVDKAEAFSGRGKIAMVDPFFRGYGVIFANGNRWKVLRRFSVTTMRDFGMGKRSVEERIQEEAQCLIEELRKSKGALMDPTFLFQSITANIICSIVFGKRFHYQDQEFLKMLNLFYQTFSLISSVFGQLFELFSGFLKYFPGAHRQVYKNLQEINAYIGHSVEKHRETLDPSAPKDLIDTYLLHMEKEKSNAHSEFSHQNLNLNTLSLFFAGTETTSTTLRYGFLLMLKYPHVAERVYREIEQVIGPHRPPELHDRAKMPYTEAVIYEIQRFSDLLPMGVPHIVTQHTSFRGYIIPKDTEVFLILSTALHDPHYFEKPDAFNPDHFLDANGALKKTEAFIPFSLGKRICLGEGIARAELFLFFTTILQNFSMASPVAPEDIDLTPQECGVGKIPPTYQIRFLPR

Cytochrome P450 1A2 [10] = target: T1, Cytochrome P450 1A2; test: Activation of CYP1A2 in human hepatocyte using phenacetin as substrate preincubated for 5 days followed by substrate addition and measured after 1 hr by LC-MS/MS analysis; type: ADME, cell-based
Rattus norvegicus [11] = test: Reversal of MK-801-induced hyperlocomotion activity in rat at 10 to 30 mg/kg,po preincubated for 30 mins followed by MK-801 addition and measured after 60 mins by open field test relative to control; type: functional; details: dose 10-30 mg/kg, time 90 min, 1.5 h
[12] = target: Voltage-gated inwardly rectifying potassium channel KCNH2 (Homo sapiens, UniProt Q12809); test: Inhibition of hERG cardiac ion channel; type: toxicity
Voltage-gated inwardly rectifying potassium channel KCNH2, sequence (Q12809 whole entry): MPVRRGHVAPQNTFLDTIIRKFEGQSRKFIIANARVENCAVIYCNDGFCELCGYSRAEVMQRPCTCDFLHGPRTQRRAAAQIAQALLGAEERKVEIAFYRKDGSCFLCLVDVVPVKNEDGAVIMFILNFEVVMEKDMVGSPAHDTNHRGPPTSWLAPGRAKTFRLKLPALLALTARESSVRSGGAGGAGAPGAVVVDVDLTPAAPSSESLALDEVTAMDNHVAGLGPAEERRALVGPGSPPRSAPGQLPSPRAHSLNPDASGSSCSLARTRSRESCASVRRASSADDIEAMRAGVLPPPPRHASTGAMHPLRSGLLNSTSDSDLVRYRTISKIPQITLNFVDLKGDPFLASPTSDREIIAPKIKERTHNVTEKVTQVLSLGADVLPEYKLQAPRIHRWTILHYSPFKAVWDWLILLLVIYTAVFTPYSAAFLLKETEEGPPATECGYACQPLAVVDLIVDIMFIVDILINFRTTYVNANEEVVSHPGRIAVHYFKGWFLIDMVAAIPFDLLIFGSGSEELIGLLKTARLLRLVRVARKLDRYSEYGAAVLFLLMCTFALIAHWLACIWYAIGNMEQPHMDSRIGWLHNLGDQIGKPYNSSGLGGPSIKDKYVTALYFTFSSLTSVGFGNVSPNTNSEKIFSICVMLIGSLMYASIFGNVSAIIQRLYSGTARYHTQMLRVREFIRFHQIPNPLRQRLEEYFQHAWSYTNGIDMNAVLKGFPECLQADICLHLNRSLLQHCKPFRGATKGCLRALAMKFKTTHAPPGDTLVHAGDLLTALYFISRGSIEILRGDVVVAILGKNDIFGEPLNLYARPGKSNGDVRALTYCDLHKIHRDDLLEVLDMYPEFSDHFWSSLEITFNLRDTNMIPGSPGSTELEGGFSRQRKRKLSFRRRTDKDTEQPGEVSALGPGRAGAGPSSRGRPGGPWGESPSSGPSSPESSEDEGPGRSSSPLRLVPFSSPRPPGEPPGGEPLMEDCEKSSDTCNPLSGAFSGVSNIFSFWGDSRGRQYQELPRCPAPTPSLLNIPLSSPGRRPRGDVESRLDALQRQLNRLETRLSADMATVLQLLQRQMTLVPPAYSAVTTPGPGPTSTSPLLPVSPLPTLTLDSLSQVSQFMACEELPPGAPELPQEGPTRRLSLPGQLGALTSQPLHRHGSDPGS

[13] = Positive allosteric modulator activity at dog M2 receptor expressed in CHO cells co-expressing Gqi5 assessed as maximal response to ACh by calcium mobilization assay; type: cell-based
[14] = Plasma protein binding in cynomolgus monkey assessed as unbound fraction incubated for 4 hrs by LC/MS/MS analysis; type: ADME, cell-free, Macaca fascicularis
[15] = target: T3, Muscarinic acetylcholine receptor M4 (Homo sapiens) (UniProt P08173); test: Positive allosteric modulator activity at human M4 receptor expressed in CHO cells co-expressing Gqi5 in absence of EC20 concentration of acetylcholine by calcium mobilization assay; type: cell-based
T3 sequence (whole entry): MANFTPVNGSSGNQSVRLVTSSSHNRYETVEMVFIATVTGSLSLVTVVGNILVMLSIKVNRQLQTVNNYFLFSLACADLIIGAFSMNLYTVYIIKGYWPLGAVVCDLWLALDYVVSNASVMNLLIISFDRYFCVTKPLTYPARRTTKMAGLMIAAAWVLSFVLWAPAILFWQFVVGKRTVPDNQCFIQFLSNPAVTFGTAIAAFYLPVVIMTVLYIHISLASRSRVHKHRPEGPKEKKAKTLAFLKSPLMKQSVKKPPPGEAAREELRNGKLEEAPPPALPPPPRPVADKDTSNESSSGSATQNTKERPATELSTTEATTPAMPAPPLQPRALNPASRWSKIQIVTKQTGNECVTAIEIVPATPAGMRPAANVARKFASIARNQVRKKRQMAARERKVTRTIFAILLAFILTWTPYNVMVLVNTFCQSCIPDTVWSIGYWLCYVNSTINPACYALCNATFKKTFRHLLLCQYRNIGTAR

[16] = Terminal unbound brain concentration in rat model of amphetamine-induced hyperlocomotion activity at 1 to 10 mg/kg, po measured after 1.5 hrs; type: ADME, organism-based; details: in vivo, dose 1-10 mg/kg
[17] = Plasma protein binding in human assessed as unbound fraction incubated for 4 hrs by LC/MS/MS analysis; type: ADME, cell-free
[18] = AUC (0 to infinity) in Beagle dog at 3 mg/kg,po by LC-MS/MS analysis; type: ADME, organism-based, Canis lupus familiaris; design: dose 3 mg/kg, route po; details: in vivo
[19] = Tmax in Sprague-Dawley rat at 3 mg/kg,po by LC-MS/MS analysis; type: ADME, organism-based; details: in vivo
[20] = Elimination half life in Sprague-Dawley rat at 3 mg/kg,po or 1 mg/kg,iv by LC-MS/MS analysis; type: ADME, organism-based; details: in vivo, read-out: beta t1/2 (converted)

Vd [2]: 0.88 L/kg
fraction unbound at 4 h [3]: 0.031
Kp uu [5]: 0.84
AUC(0-inf) [6]: 3.8 µM·h
Tmax [8]: 0.75 h
Activity (Cytochrome P450 1A2 [9]): 21.4%
Emax at 1 h (CYP2B6): ≤ 1%
EC50 (Cytochrome P450 1A2 [10]): > 50 µM
EC50 [13]: > 30 µM
fraction unbound at 4 h [14]: 0.091
Activity [15]: inactive
Drug uptake(free) [16]: 0.02 µM
fraction unbound at 4 h [17]: 0.054
AUC(0-inf) [18]: 0.59 µM·h
Tmax [19]: 1.5 h
half-life [20]: 4.2 h
SMILES: COc1ccc(CNC(=O)c2sc3nnc(C)c(C)c3c2N)cc1F
Activity (Rattus norvegicus [1]): 43.2%
Activity [4]: Non-Toxic
Activity [7]: Non-Toxic
Activity (Rattus norvegicus [11]): 41.1%
IC50 [12]: > 33 µM

Source: ChEMBL document CHEMBL5252536, “Discovery of VU0467485/AZ13713945: An M4 PAM Evaluated as a Preclinical Candidate for the Treatment of Schizophrenia” (ACS Med Chem Lett, 2017)
